Source: patent US20250144067A1, “PERSONALIZED STARVATION THERAPY FOR CANCER” (Faeth Therapeutics, Inc., priority 2021, published 2025)
Structures can show the parent of a compound that is named as a salt.

What was measured:
[1] = test system: NCI-H292 lung cancer cells; experiment: FDA drug screening, complete media vs cholesterol-free media with simvastatin (TABLE 2); format: cell-based, human; conditions: for Cholesterol-free media + simvastatin (0.04 μM) / Complete Media: NCI-H292 cells; for Cholesterol-free media + simvastatin (0.04 μM): cholesterol-free media with simvastatin 0.04 μM
[2] = test system: NCI-H292 lung cancer cells; experiment: FDA drug screening, complete media vs cholesterol-free media without statin (TABLE 1); format: cell-based, human
[3] = complete media minus cholesterol-free media + simvastatin, >0 enhanced anti-cancer activity, about 0 neutral, <0 antagonist
[4] = Complete minus Cholesterol-free, greater than 0 enhanced anti-cancer activity, about 0 neutral, below 0 antagonists
[5] = NCI-H292 cells in cholesterol-free media without statin
[6] = NCI-H292 cells in complete media
[7] = Complete minus Cholesterol-free, greater than 0 enhanced anti-cancer activity, about 0 neutral, below 0 antagonist
[8] = NCI-H292 cells, FDA drug library screen, cholesterol-free media without statin
[9] = NCI-H292 cells, FDA drug library screen, complete media
[10] = cell growth value in FDA drug screen
[11] = Complete minus Cholesterol-free, >0 enhanced anti-cancer activity, about 0 neutral, <0 antagonist
[12] = NCI-H292 cells, cholesterol-free media without statin
[13] = FDA drug library screen (TABLE 2)
[14] = complete media minus cholesterol-free media + simvastatin (0.04 μM), >0 enhanced anti-cancer activity, about 0 neutral, <0 antagonist
[15] = NCI-H292 cells, cholesterol-free media without statin, FDA drug library screen
[16] = NCI-H292 cells, complete media, FDA drug library screen
[17] = complete media vs cholesterol-free media + simvastatin (0.04 μM), >0 enhanced anti-cancer activity, about 0 neutral, <0 antagonist

CCN(c1cc(-c2ccc(CN3CCOCC3)cc2)cc(C(=O)NCc2c(C)cc(C)[nH]c2=O)c1C)C1CCOCC1 [Tazemetostat]
Cholesterol-free media + simvastatin (0.04 μM) ([1]; FDA drug library screen): 0.9335
Complete Media ([1]; FDA drug library screen): 1.59
Difference [1, 3]: 0.66
Difference [2, 4]: −0.49
Cholesterol-free [2, 5]: 1.722
Complete [2, 6]: 1.228

C[C@]1(Cn2ccnn2)[C@H](C(=O)O)N2C(=O)C[C@H]2S1(=O)=O [Tazobactam]
Cholesterol-free media + simvastatin (0.04 μM) ([1]; FDA drug library screen): 1.141
Complete Media ([1]; FDA drug library screen): 1.299
Difference [1, 3]: 0.16
Difference [2, 7]: −0.10
Cholesterol-free [2, 8]: 1.004
Complete [2, 9]: 0.9006

Cn1nnc(-c2ccc(-c3ccc(N4C[C@H](CO)OC4=O)cc3F)cn2)n1 [Tedizolid]
Cholesterol-free media + simvastatin (0.04 μM) [1, 10]: 1.119
Complete Media [1, 10]: 1.184
Difference [1, 3]: 0.07
Difference [2, 7]: −0.10
Cholesterol-free [2, 8]: 0.9116
Complete [2, 9]: 0.8073

O=c1[nH]c(=O)n(C2CCCO2)cc1F (stereo not drawn) [Tegafur]
Cholesterol-free media + simvastatin (0.04 μM) ([1]; FDA drug library screen): 1.002
Complete Media ([1]; FDA drug library screen): 1.263
Difference [1, 3]: 0.26
Difference [2, 11]: −0.25
Cholesterol-free [2, 12]: 0.9682
Complete ([2]; NCI-H292 cells, complete media): 0.7137

CCC[C@H](NC(=O)[C@@H]1[C@H]2CCC[C@H]2CN1C(=O)[C@@H](NC(=O)[C@@H](NC(=O)c1cnccn1)C1CCCCC1)C(C)(C)C)C(=O)C(=O)NC1CC1 [Telaprevir]
Cholesterol-free media + simvastatin (0.04 μM) ([1]; FDA drug library screen): 1.084
Complete Media ([1]; FDA drug library screen): 0.9529
Difference ([1]; complete media vs cholesterol-free media + simvastatin (0.04 μM), […]): −0.13
Cholesterol-free [2, 12]: 1.55
Complete ([2]; NCI-H292 cells, complete media): 1.165
Difference ([2]; complete vs cholesterol-free media, […]): −0.39

Cc1cn([C@@H]2C[C@@H](O)[C@H](CO)O2)c(=O)[nH]c1=O [Telbivudine]
Cholesterol-free media + simvastatin (0.04 μM) [1, 13]: 0.8748
Complete Media [1, 13]: 0.8605
Difference [1, 14]: −0.01
Difference [2, 11]: −0.03
Cholesterol-free [2, 15]: 0.8613
Complete [2, 16]: 0.8275

CC[C@H]1OC(=O)[C@H](C)C(=O)[C@H](C)[C@@H](O[C@@H]2O[C@H](C)C[C@H](N(C)C)[C@H]2O)[C@](C)(OC)C[C@@H](C)C(=O)[C@H](C)[C@H]2N(CCCCn3cnc(-c4cccnc4)c3)C(=O)O[C@]12C [Telithromycin]
Cholesterol-free media + simvastatin (0.04 μM) [1, 13]: 0.872
Complete Media [1, 13]: 0.854
Difference [1, 14]: −0.02
Difference [2, 4]: −0.51
Cholesterol-free [2, 5]: 1.316
Complete [2, 6]: 0.8019

CCCc1nc2c(C)cc(-c3nc4ccccc4n3C)cc2n1Cc1ccc(-c2ccccc2C(=O)O)cc1 [Telmisartan]
Cholesterol-free media + simvastatin (0.04 μM) [1, 10]: 0.8657
Complete Media [1, 10]: 0.906
Difference [1, 3]: 0.04
Difference [2, 11]: −0.06
Cholesterol-free [2, 15]: 1.319
Complete [2, 16]: 1.255

CCOC(=O)[C@@H](N)Cc1ccc(-c2cc(O[C@H](c3ccc(Cl)cc3-n3ccc(C)n3)C(F)(F)F)nc(N)n2)cc1 [Telotristat ethyl]
Cholesterol-free media + simvastatin (0.04 μM) ([1]; FDA drug library screen): 1.11
Complete Media ([1]; FDA drug library screen): 0.9913
Difference [1, 17]: −0.12
Cholesterol-free [2, 12]: 1.253
Complete ([2]; NCI-H292 cells, complete media): 0.9282
Difference ([2]; complete vs cholesterol-free media, greater than 0 enhanced anti-cancer activity, about 0 neutral, below 0 antagonists): −0.32

CCOC(=O)[C@@H](N)Cc1ccc(-c2cc(O[C@H](c3ccc(Cl)cc3-n3ccc(C)n3)C(F)(F)F)nc(N)n2)cc1 [Telotristat etiprate]
Cholesterol-free media + simvastatin (0.04 μM) ([1]; FDA drug library screen): 1.173
Complete Media ([1]; FDA drug library screen): 1.074
Difference [1, 17]: −0.10
Difference [2, 4]: −0.51
Cholesterol-free [2, 5]: 1.323
Complete [2, 6]: 0.8145

CCOC(=O)[C@H](CCc1ccccc1)N[C@H]1CS[C@H](c2cccs2)CN(CC(=O)O)C1=O [Temocapril (hydrochloride)]
Cholesterol-free media + simvastatin (0.04 μM) [1, 13]: 1.423
Complete Media [1, 13]: 1.436
Difference [1, 14]: 0.01
Difference [2, 11]: 0.00
Cholesterol-free [2, 15]: 0.6068
Complete [2, 16]: 0.6079
